This note sets out measurements from patent US8809347B2, “Bicyclic aryl and bicyclic heteroaryl substituted triazoles useful as AXL inhibitors” (Rigel Pharmaceuticals, Inc., priority 2006, dated 2014).

Some results are limits rather than exact numbers.

The target in the experiment is T1, Axl (Homo sapiens, UniProt P30530).
T1 construct: Cells: Hela cells; endogenous in cells; host or cells: HeLa cells
T1 sequence (P30530 26-894): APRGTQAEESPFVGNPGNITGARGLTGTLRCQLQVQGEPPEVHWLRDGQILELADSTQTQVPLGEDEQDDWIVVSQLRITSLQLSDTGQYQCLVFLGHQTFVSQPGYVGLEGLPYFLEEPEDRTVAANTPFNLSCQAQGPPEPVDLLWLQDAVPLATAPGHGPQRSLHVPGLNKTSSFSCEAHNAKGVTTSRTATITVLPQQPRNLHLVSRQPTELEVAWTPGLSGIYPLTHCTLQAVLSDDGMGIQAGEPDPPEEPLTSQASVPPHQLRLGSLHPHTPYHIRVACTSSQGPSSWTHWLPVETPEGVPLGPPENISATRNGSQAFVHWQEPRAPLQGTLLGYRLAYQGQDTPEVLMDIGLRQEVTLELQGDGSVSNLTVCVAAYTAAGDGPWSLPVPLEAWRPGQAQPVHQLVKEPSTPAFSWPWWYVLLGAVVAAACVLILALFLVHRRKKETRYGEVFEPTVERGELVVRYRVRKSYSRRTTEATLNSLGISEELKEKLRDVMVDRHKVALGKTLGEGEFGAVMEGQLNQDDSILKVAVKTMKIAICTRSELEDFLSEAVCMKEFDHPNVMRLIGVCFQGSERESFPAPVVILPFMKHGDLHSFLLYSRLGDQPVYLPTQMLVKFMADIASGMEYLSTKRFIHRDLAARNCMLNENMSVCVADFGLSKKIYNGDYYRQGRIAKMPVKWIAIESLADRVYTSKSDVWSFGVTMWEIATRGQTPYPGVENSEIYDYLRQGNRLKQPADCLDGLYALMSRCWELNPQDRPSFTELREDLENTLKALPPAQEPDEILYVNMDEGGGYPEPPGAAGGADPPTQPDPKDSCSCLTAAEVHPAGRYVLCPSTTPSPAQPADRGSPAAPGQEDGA
The experiment in a line: Phospho-Akt in-cell Western assay (inhibition of Axl activity). In kind it is cell-based. The following applies: Hela cells; 1 hr pre-treatment; stimulation by Axl-antibody cross-linking; phospho-Akt chemiluminescence normalized to relative cell number. How it is done: The compounds of the invention were tested in the following assay for their ability to inhibit Axl activity.
Phospho-Akt in-Cell Western Assay
• Cell culture plate: 96 well assay plate (Corning 3610), white, clear bottom, tissue-culture treated. • Cells: Hela cells. • Starvation medium: For Axl stimulation: 0.5% FCS (fetal calf serum) in DMEM, plus Axl/Fc (extracellular domain of AXL fused to immunoglobulin Fc region) (R&D, 154-AL) 500 ng/mL. • For EGF (epidermal growth factor) stimulation: 0.5% FCS in DMEM (Dulbecco's modified Eagles medium). • Poly-L-Lysine 0.01% solution (the working solution): […], dilute In PBS (phosphate buffered saline). • Axl antibody cross-linking: • 1st: Mouse anti-Axl (R&D, MAB154). • 2nd: Biotin-SP-conjugated AffiniPure goat anti-mouse IgG (H+ L) (Jackson ImmunoResearch #115-065-003). • Fixing buffer: 4% formaldehyde in PBS. • Wash buffer: 0.1% TritonX-100 in PBS. • Quenching buffer: 3% H2O2, 0.1% Azide in wash buffer, Azide and hydrogen peroxide (H2O2) are added fresh. • Blocking buffer: 5% BSA in TBST (tris buffered saline plus 0.1% Tween 20). • Primary antibody: Rabbit anti-human Phospho-Akt antibody (Cell Signaling 9271): 1×250 diluted in blocking buffer. • Secondary antibody: HRP (horse radish peroxidase)-conjugated Goat anti-Rabbit secondary, stock solution: Jackson ImmunoResearch (Goat anti-Rabbit HRP, #111-035-144) 1:1 diluted in glycerol, store at −20° C. The working solution: 1×2000 dilution of stock in blocking buffer. • Chemiluminescent working solution (Pierce, 37030): SuperSignal ELISA (enzyme linked immunosorbant assay) Pico Chemiluminescent substrate. • Crystal Violet solution: Stock: 2.5% Crystal violet in methanol, filtered and kept at ambient temperature. The working solution: dilute the stock 1:20 with PBS immediately before use. • 10% SDS: working solution: 5% SDS (sodium dodecylsulfate), diluted in PBS Methods: Day 1:
A 96 well TC (tissue culture treated) plate was coated with 10 μg/mL poly-L-Lysine at 37° C. for 30 min, washed twice with PBS, and air-dried for 5 minutes before cells were added. Hela cells were seeded at 10,000 cells/well and the cells were starved in 100 μL starvation medium containing Axl/Fc for 24 hrs.
The cells were pre-treated with test compounds by adding 100 μL of 2× test compound to the starvation medium on the cells. The cells were incubated at 37° C. for 1 hr before stimulation.
The cells were stimulated by Axl-antibody cross-linking as follows: A 5× 1st/2nd Axl antibody mixture was made (37.5 μg/mL 1st/100 μg/mL 2nd) in starvation medium and nutated at 4° C. with thorough mixing for 1-2 hours for clustering. The resulting mix was warmed to 37° C. 50 μL of 5× Axl 1st/2nd of antibody cluster was added to the cells and the cells were incubated at 37° C. for 5 min.
After 5 minutes stimulation, the plate was flicked to remove medium and the plate was tapped onto paper towels. Formaldehyde (4.0% in PBS, 100 μL) was added to fix the cells and the cells were incubated at ambient temperature for 20 min without shaking.
The cells were washed with a plate washer buffer to remove the formaldehyde solution. The plate was flicked to removed excess wash buffer and tapped onto paper towels. Quenching buffer (100 μL) was added to each well and the cells were incubated at ambient temperature for 20 minutes without shaking.
The cells were washed with a plate washer buffer to remove the quenching buffer. Blocking buffer (100 μL) was added and the cells were incubated at ambient temperature for at least an hour with gentle shaking.
The cells were washed with a plate washer buffer and diluted primary antibody (50 μL) was added to each well (blocking buffer was added to the negative control wells instead). The plates were incubated overnight at 4° C. with gentle shaking.
The wash buffer was removed, diluted secondary antibody (100 μL) was added, and the cells were incubated at ambient temperature for 1 hour with gentle shaking. […]
On to `Nc1nc(Nc2ccc(N3CCC(N4CCCCCC4)CC3)nc2)nn1-c1ncnc2c1CCCCCC2` [Compound 51, N^3-(6-(4-(azepan-1-yl)piperidin-1-yl)pyridin-3-yl)-1-(5,6,7,8,9,10-hexahydrocycloocta[d]pyrimidin-4-yl)-1H-1,2,4-triazole-3,5-diamine], for which the IC50 – broadly, the midpoint of a concentration-inhibition curve – was less than 1000 nM. For `Cc1csc2c(-n3nc(Nc4ccc5c(c4)C(=O)NCCCC5)nc3N)ncnc12` [Compound 49, N^3-(1-oxo-1,2,3,4,5,6-hexahydrobenzo[c]azocin-9-yl)-1-(7-methylthieno[3,2-d]pyrimidin-4-yl)-1H-1,2,4-triazole-3,5-diamine], the IC50 lay within 1000 to 10000 nM. Take `CN1CCN(c2ccc(Nc3nc(N)n(-c4cc(-c5ccccc5)c5c(n4)CCCCCC5)n3)cc2)CC1` [Compound 46, N^3-(4-(4-methylpiperazin-1-yl)phenyl)-1-(4-phenyl-5,6,7,8,9,10-Hexahydrocycloocta[b]-pyridin-2-yl)-1H-1,2,4-triazole-3,5-diamine]: the IC50 lay within 1000 to 10000 nM. With `CN(C)[C@H]1CCN(c2ccc(Nc3nc(N)n(-c4ncc5c(n4)CCCCCC5)n3)cc2)C1` [Compound 7, (S)—N^3-(4-(3-(dimethylamino)pyrrolidin-1-yl)phenyl)-1-(5,6,7,8,9,10-hexahydrocycloocta[d]pyrimidin-2-yl)-1H-1,2,4-triazole-3,5-diamine], the IC50 was 1000 to 10000 nM. As for `Nc1nc(Nc2ccc(OCCN3CCCC3)cc2)nn1-c1cc2c(nn1)CCCCCC2` [Compound 18, 1-(5,6,7,8,9,10-hexahydrocycloocta[c]pyridazin-3-yl)-N^3-(4-(2-(pyrrolidin-1-yl)ethoxy)phenyl)-1H-1,2,4-triazole-3,5-diamine], the IC50 was less than 1000 nM. `Cc1csc2c(-n3nc(Nc4ccc5c(c4)C(=O)NCCCC5)nc3N)nc(Cl)nc12` [Compound 48, N^3-(1-oxo-1,2,3,4,5,6-hexahydrobenzo[c]azocin-9-yl)-1-(2-chloro-7-methylthieno[3,2-d]pyrimidin-4-yl)-1H-1,2,4-triazole-3,5-diamine]: the IC50 is less than 1000 nM.

As to `Nc1nc(Nc2ccc(N3CCC(N4CCCC4)CC3)c(F)c2)nn1-c1ncc2c(n1)CCCCCC2` [Compound 10, N^3-(3-fluoro-4-(4-(pyrrolidin-1-yl)piperidin-1-yl)phenyl)-1-(5,6,7,8,9,10-hexahydrocycloocta[d]pyrimidin-2-yl)-1H-1,2,4-triazole-3,5-diamine], the IC50 was less than 1000 nM. With `Cc1csc2c(-n3nc(Nc4ccc5c(c4)CCCN(C4CC6CCC4C6)CC5)nc3N)ncnc12` (centres unmarked) [Compound 42, N^3-(3-(bicyclo[2.2.1]heptan-2-yl)-1,2,3,4,5,6-hexahydrobenzo[d]azocin-8-yl)-1-(7-methylthieno[3,2-d]pyrimidin-4-yl)-1H-1,2,4-triazole-3,5-diamine] the figure was less than 1000 nM; with `Nc1nc(Nc2ccc(N3CC(N4CCCC4)C3)c(F)c2)nn1-c1ncnc2c1CCCCCC2` [Compound 36, N^3-(3-fluoro-4-(3-(pyrrolidin-1-yl)azetidin-1-yl)phenyl)-1-(5,6,7,8,9,10-hexahydrocycloocta[d]pyrimidin-4-yl)-1H-1,2,4-triazole-3,5-diamine], less than 1000 nM; with `CN1CCN(Cc2ccc(Nc3nc(N)n(-c4ncc5c(n4)CCCCCC5)n3)cc2)CC1` [Compound 9, 1-(5,6,7,8,9,10-hexahydrocycloocta[d]pyrimidin-2-yl)-N^3-(4-((4-methylpiperazin-1-yl)methyl)phenyl)-1H-1,2,4-triazole-3,5-diamine], 1000 to 10000 nM. For the molecule `Cc1csc2c(-n3nc(Nc4ccc5c(c4)OCCCCO5)nc3N)nc(Cl)nc12` [Compound 28, 1-(2-chloro-7-methylthieno[3,2-d]pyrimidin-4-yl)-N^3-(2,3,4,5-tetrahydrobenzo[b][1,4]dioxocin-8-yl)-1H-1,2,4-triazole-3,5-diamine], the IC50 is less than 1000 nM. `Nc1nc(Nc2ccc(N3CCN(C4CC5CCC4C5)CC3)cc2)nn1-c1ncnc2c1CCCCCC2` (centres unmarked) [Compound 24, N^3-(4-(4-(bicyclo[2.2.1]heptan-2-yl)piperazin-1-yl)phenyl)-1-(5,6,7,8,9,10-hexahydrocycloocta[d]pyrimidin-4-yl)-1H-1,2,4-triazole-3,5-diamine]: the IC50 was less than 1000 nM. In the case of `CCOC(=O)N1CCN(c2ccc(Nc3nc(N)n(-c4ncc5c(n4)CCCCCC5)n3)cc2F)CC1` [Compound 14, ethyl 4-(4-(5-amino-1-(5,6,7,8,9,10-hexahydrocycloocta[d]pyrimidin-2-yl)-1H-1,2,4-triazol-3-ylamino)-2-fluorophenyl)piperazine-1-carboxylate], the IC50 was 1000 to 10000 nM. As for `Nc1nc(Nc2ccc(N3CCN(C4CCCCC4)CC3)cc2)nn1-c1ncc2c(n1)CCCCCC2` [Compound 5, N^3-(4-(4-cyclohexylpiperazin-1-yl)phenyl)-1-(5,6,7,8,9,10-hexahydrocycloocta[d]pyrimidin-2-yl)-1H-1,2,4-triazole-3,5-diamine], the half-inhibitory concentration (IC50) was less than 1000 nM.

Regarding `Cc1csc2c(-n3nc(Nc4cnc5c(c4)CCC(NC4CCCCC4)CCC5)nc3N)ncnc12` (centres unmarked) [Compound 43, N^3-(7-(cyclohexylamino)-5,6,7,8,9,10-hexahydrocycloocta[b]pyridin-3-yl)-1-(7-methylthieno[3,2-d]pyrimidin-4-yl)-1H-1,2,4-triazole-3,5-diamine], the IC50 is less than 1000 nM.

Turning to `CN1CCN(c2ccc(Nc3nc(N)n(-c4ncc5c(n4)CCCCCC5)n3)cc2)CC1` [Compound 2, 1-(5,6,7,8,9,10-hexahydrocycloocta[d]pyrimidin-2-yl)-N^3-(4-(4-methylpiperazin-1-yl)phenyl)-1H-1,2,4-triazole-3,5-diamine], the IC50 is less than 1000 nM. With `Nc1nc(Nc2ccc(N3CCC(N4CCCC4)CC3)c(F)c2)nn1-c1ncnc2c1CCCCCC2` [Compound 35, N^3-(3-fluoro-4-(4-(pyrrolidin-1-yl)piperidin-1-yl)phenyl)-1-(5,6,7,8,9,10-hexahydrocycloocta[d]pyrimidin-4-yl)-1H-1,2,4-triazole-3,5-diamine] the figure was less than 1000 nM.
